Source: ChEMBL document CHEMBL4382212, “Tetrazolylpropan-2-ones as inhibitors of fatty acid amide hydrolase: Studies on structure-activity relationships and metabolic stability” (Eur J Med Chem, 2018)

Assay: Partition coefficient, log P of the compound at 5 mM by reversed phase HPLC analysis
Format: physicochemical
Details: octanol/water
COC(=O)c1ccc(-c2nnn(CC(=O)C(C)Oc3ccc(Oc4ccc(C(F)(F)F)cc4)cc3)n2)cc1 (centres undefined) gave a logP at 5000 µM of 6.2.
With CC(Oc1ccc(-c2ccccc2)cc1)C(=O)Cn1nnc(-c2ccc(C(=O)O)cc2)n1 (centres undefined) the logP at 5000 µM was 2.6.
Compound CCCCCCCCc1ccc(OCC(=O)Cn2nnc(-c3ccccc3)n2)cc1 has a logP at 5000 µM of 8.
Compound CC(Oc1ccc(Oc2ccc(C(F)(F)F)cc2)cc1)C(=O)Cn1nnc(-c2ccccc2)n1 (centres undefined) has a logP at 5000 µM of 6.2.
In the case of CCCCCCCCc1ccc(OC(C)C(=O)Cn2nnc(-c3ccccc3)n2)cc1 (centres undefined), the logP at 5000 µM was > 8.
For CC(Oc1ccc(Oc2ccc(C(F)(F)F)cc2)cc1)C(=O)Cn1nnc(-c2ccc(C(=O)O)cc2)n1 (centres undefined), the logP at 5000 µM was 3.5.
COC(=O)c1ccc(-c2nnn(CC(=O)C(C)Oc3ccc(Oc4ccc(F)cc4)cc3)n2)cc1 (centres undefined) gave a logP at 5000 µM of 5.4.
Compound COC(=O)c1ccc(-c2nnn(CC(=O)C(C)Oc3ccc(Oc4ccc(Cl)cc4)cc3)n2)cc1 (centres undefined) has a logP at 5000 µM of 6.1.
In the case of COC(=O)c1ccc(-c2nnn(CC(=O)C(C)Oc3ccc(-c4ccccc4)cc3)n2)cc1 (centres undefined), the logP at 5000 µM was 5.4.
With CCCCCCCCc1ccc(OCC(=O)Cn2nnc(C(=O)O)n2)cc1 the logP at 5000 µM was 5.3.
CC(Oc1ccc(Oc2ccc(F)cc2)cc1)C(=O)Cn1nnc(-c2ccc(Cl)cc2)n1 (centres undefined) showed a logP at 5000 µM of 6.2.
With CCCCCCCCc1ccc(OC(C)C(=O)Cn2nnc(-c3ccc(C(=O)OC)cc3)n2)cc1 (centres undefined) the logP at 5000 µM was > 8.
CCCCCCCCc1ccc(OCC(=O)Cn2nnc(-c3ccc(C(=O)OC)cc3)n2)cc1 showed a logP at 5000 µM of 8.
Work on CC(Oc1ccc(Oc2ccc(Cl)cc2)cc1)C(=O)Cn1nnc(-c2ccccc2)n1 (centres undefined) yielded a logP at 5000 µM of 6.
With CCCCCCCCc1ccc(OC(C)C(=O)Cn2nnc(-c3ccc(C(=O)O)cc3)n2)cc1 (centres undefined) the logP at 5000 µM was 5.9.
Work on CC(Oc1ccc(Oc2ccc(C(F)(F)F)cc2)cc1)C(=O)Cn1nnc(-c2ccc(Cl)cc2)n1 (centres undefined) yielded a logP at 5000 µM of 7.
In the case of CC(Oc1ccc(Oc2ccc(F)cc2)cc1)C(=O)Cn1nnc(-c2ccc(C(=O)O)cc2)n1 (centres undefined), the logP at 5000 µM was 2.7.
With CC(Oc1ccc(Oc2ccc(F)cc2)cc1)C(=O)Cn1nnc(-c2ccccc2)n1 (centres undefined) the logP at 5000 µM was 5.3.
For CCCCCCCCc1ccc(OC(C)C(=O)Cn2nnc(-c3ccc(Cl)cc3)n2)cc1 (centres undefined), the logP at 5000 µM was > 8.
CC(Oc1ccc(-c2ccccc2)cc1)C(=O)Cn1nnc(-c2ccccc2)n1 (centres undefined) showed a logP at 5000 µM of 5.3.
For CC(Oc1ccc(-c2ccccc2)cc1)C(=O)Cn1nnc(-c2ccc(Cl)cc2)n1 (centres undefined), the logP at 5000 µM was 6.1.
With CCCCCCCCc1ccc(OCC(=O)Cn2nnc(-c3ccc(Cl)cc3)n2)cc1 the logP at 5000 µM was > 8.
CC(Oc1ccc(Oc2ccc(Cl)cc2)cc1)C(=O)Cn1nnc(-c2ccc(C(=O)O)cc2)n1 (centres undefined) showed a logP at 5000 µM of 3.3.
Compound CC(Oc1ccc(Oc2ccc(Cl)cc2)cc1)C(=O)Cn1nnc(-c2ccc(Cl)cc2)n1 (centres undefined) has a logP at 5000 µM of 6.8.
